Test results taken from patent US8257755B2, “Metabolic syndrome-improving agent and medicine, supplement, functional food and food additive containing the same” (ARKRAY, Inc., priority 2005, dated 2012).

Assays:
[1] = target: T1, PPARα (Homo sapiens, UniProt Q07869); assay: PPARα ligand activity, GAL4-hPPARα luciferase reporter assay in CV-1 cells; type: cell-based; conditions: relative to non-treatment control (DMSO) = 100, average ± standard error
T1 construct: expressed in transfected cells; host or cells: CV-1 cells (African green monkey kidney)
T1 sequence (Q07869 1-468): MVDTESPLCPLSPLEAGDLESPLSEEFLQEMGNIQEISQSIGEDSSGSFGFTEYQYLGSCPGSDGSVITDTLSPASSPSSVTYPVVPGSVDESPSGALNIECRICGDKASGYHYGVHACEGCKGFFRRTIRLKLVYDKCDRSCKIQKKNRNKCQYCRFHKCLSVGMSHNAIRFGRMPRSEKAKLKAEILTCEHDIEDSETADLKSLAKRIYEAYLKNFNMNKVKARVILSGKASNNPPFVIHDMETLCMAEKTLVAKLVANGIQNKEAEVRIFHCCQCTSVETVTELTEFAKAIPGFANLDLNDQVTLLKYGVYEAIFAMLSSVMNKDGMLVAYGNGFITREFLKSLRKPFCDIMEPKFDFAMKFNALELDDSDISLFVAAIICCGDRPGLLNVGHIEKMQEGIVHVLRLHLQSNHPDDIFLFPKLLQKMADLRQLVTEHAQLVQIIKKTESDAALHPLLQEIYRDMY
Method: CV-1 cells (cultured cells derived from kidneys of male African green monkeys) were implanted on 24-well culture plates so as to be […]/well and cultured at 37° C. in 5% CO2 for 24 hours. As a medium, DMEM (Dulbecco's Modified Eagle Medium; manufactured by GIBCO) containing 10% FBS (fetal bovine serum) and a 10 mg/mL penicillin streptomycin solution was used. Using the Lipofectamine system (trade name; manufactured by Invitrogen Corporation), pM-hPPARγ and p4×UASg-tk-luc were transfected. The above-noted pM-hPPARγ was a chimeric protein-expression plasmid binding GAL4 gene (amino acid sequence 1-147) and human PPARγ ligand-binding site gene (amino acid sequence 204-505), whereas the above-noted p4×UASg-tk-luc was a reporter plasmid containing four copies of a responsive element (UAS) of GAL 4 upstream of a luciferase gene. About 24 hours after the transfection, samples of bergamottin at respective concentrations (0.1, 1.0, 10, 50 and 100 μM) were added to the above-described media, followed by 24 hour incubation. The above-noted samples were prepared by dissolving bergamottin in dimethyl sulfoxide (DMSO). Instead of the above-noted sample, DMSO was used for non-treated control media. After the incubation, measurement was made using a Dual-Luciferase Reporter Gene Assay system (trade name; manufactured by Promega Corporation).
Similarly to the measurement group, as a control group, pM (a plasmid from which PPARγ ligand-binding site gene was removed) was used for measurement instead of pM-hPPARγ. For each sample, the ratio between average luminescence intensities of the measurement group and the control group (n=4) (measurement group/control group) was calculated, and an activity relative to the non-treatment control was determined as the PPARγ ligand activity of the sample.
The PPARα ligand activity of bergamottin was measured similarly to Example 1 except that pM-hPPARα was used instead of pM-hPPARγ and the bergamottin concentrations were set to 0.1, 1.0, 5.0, 10, 20, 50 and 80 μM.

[2] = system: 3T3-L1 cells; assay: Adiponectin secretion amount in 3T3-L1 medium supernatant by ELISA; type: cell-based, mouse; conditions: medium 7 days after differentiation induction, non-treatment control 4.27 ± 0.32, average ± standard error
Method: Next, culture preadipocytes 3T3-L1 were thawed, inoculated in a 100 mm dish and cultured until 3T3-L1 cells reached about 80% confluence. A single dish of 3T3-L1 that had reached about 80% confluence was subcultured to a single 6-well plate and further cultured until the 3T3-L1 cells reached confluence in the 6-well plate, and then the medium was replaced with the differentiation induction medium, followed by differentiation induction. 48 hours later, the medium was replaced with the differentiation promotion medium, and thereafter, the medium was replaced with the differentiation promotion medium every two days. 7 days after the initiation of the differentiation induction, mRNA was extracted using Sepasol-RNA I Super (trade name; manufactured by Nacalai Tesque, Inc.), and the mRNA expression amounts of 36B4, aP2 and adiponectin, which were indicators of an early period of adipocyte differentiation, were measured using Light Cycler (TM). Also, the medium 7 days after the differentiation induction was taken in an amount of 1 mL from each well, and the amount of adiponectin in the medium supernatant was measured using a mouse/rat adiponectin ELISA kit (manufactured by Otsuka Pharmaceutical Co., Ltd.). […]
Only the strips of the antibody plates necessary for the analysis were taken out. […] Incidentally, the standard solutions always were measured for each measurement and each plate. […]

Compound: CC(C)=CCC/C(C)=C/COc1c2ccoc2cc2oc(=O)ccc12 [Bergamottin, bergamottin]
- PPARα ligand activity ([1]; 0.1 μM): 95 ± 12.9
- PPARα ligand activity ([1]; 1.0 μM): 92 ± 8.0
- PPARα ligand activity ([1]; 5.0 μM): 118 ± 6.1
- PPARα ligand activity ([1]; 10 μM): 194 ± 15.0
- PPARα ligand activity ([1]; 20 μM): 350 ± 25.5
- PPARα ligand activity ([1]; 50 μM): 622 ± 79.6
- PPARα ligand activity ([1]; 80 μM): 558 ± 39.4
- Adiponectin secretion amount ([2]; 1 μM): 4.37 ± 0.12
- Adiponectin secretion amount ([2]; 5 μM): 8.14 ± 0.36
